Toxic doses and inconclusive results are not listed. Rule as the data show it: active = T/C of 150% or more; inactive = T/C below 125%.
Tested on: L1210 leukemia ip in BDF1 mice, survival T/C
Test: NCI In Vivo Anticancer Drug Screen. Data for tumor model L1210 Leukemia (intraperitoneal) in B6D2F1 (BDF1) mice
Details: endpoint: mean survival time, higher = longer survival
Procedure, shortened: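 Mice bearing the transplanted tumor received compound or vehicle. Survival of the treated group was divided by that of the vehicle-treated control group to give the ratio.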

[1] = dose: 100.0 mg/kg/injection, schedule: Q01DX009 (ip), vehicle: saline with Tween-80
[2] = dose: 100.0 mg/kg/injection, schedule: Q04DX003 (ip), vehicle: saline with Tween-80
[3] = dose: 200.0 mg/kg/injection, schedule: Q01DX009 (ip), vehicle: saline with Tween-80
[4] = dose: 200.0 mg/kg/injection, schedule: Q04DX003 (ip), vehicle: saline with Tween-80
[5] = dose: 400.0 mg/kg/injection, schedule: Q01DX009 (ip), vehicle: saline with Tween-80
[6] = dose: 50.0 mg/kg/injection, schedule: Q04DX003 (ip), vehicle: saline
[7] = dose: 100.0 mg/kg/injection, schedule: Q04DX003 (ip), vehicle: saline
[8] = dose: 200.0 mg/kg/injection, schedule: Q04DX003 (ip), vehicle: saline
[9] = dose: 100.0 mg/kg/injection, schedule: Q01DX009 (ip), vehicle: Klucel (hydroxypropylcellulose) (HPC)
[10] = dose: 200.0 mg/kg/injection, schedule: Q01DX009 (ip), vehicle: Klucel (hydroxypropylcellulose) (HPC)
[11] = dose: 400.0 mg/kg/injection, schedule: Q04DX003 (ip), vehicle: saline with Tween-80
[12] = dose: 100.0 mg/kg/injection, schedule: Q04DX002 (ip), vehicle: saline with Tween-80
[13] = dose: 200.0 mg/kg/injection, schedule: Q04DX002 (ip), vehicle: saline with Tween-80
[14] = dose: 100.0 mg/kg/injection, schedule: Q04DX002 (ip), vehicle: Klucel (hydroxypropylcellulose) (HPC)
[15] = dose: 200.0 mg/kg/injection, schedule: Q04DX002 (ip), vehicle: Klucel (hydroxypropylcellulose) (HPC)
[16] = dose: 100.0 mg/kg/injection, schedule: Q01DX001 (ip), vehicle: Klucel (hydroxypropylcellulose) (HPC)
[17] = dose: 200.0 mg/kg/injection, schedule: Q01DX001 (ip), vehicle: Klucel (hydroxypropylcellulose) (HPC)

Measured: T/C

Cc1cc(N(CCOS(C)(=O)=O)CCOS(C)(=O)=O)ccc1C=Nc1ccc(C(=O)O)cc1
inactive: dose: 2.5 mg/kg/injection, schedule: Q04DX003 (ip), vehicle: Klucel (hydroxypropylcellulose) (HPC) 108 % of control | dose: 5.0 mg/kg/injection, schedule: Q04DX003 (ip), vehicle: Klucel (hydroxypropylcellulose) (HPC) 113 % of control | dose: 6.6 mg/kg/injection, schedule: Q04DX003 (ip), vehicle: Klucel (hydroxypropylcellulose) (HPC) 102 % of control | dose: 10.0 mg/kg/injection, schedule: Q04DX003 (ip), vehicle: Klucel (hydroxypropylcellulose) (HPC) 103 % of control | dose: 15.0 mg/kg/injection, schedule: Q04DX003 (ip), vehicle: Klucel (hydroxypropylcellulose) (HPC) 118 % of control | dose: 20.0 mg/kg/injection, schedule: Q04DX003 (ip), vehicle: Klucel (hydroxypropylcellulose) (HPC) 113 % of control | dose: 40.0 mg/kg/injection, schedule: Q04DX003 (ip), vehicle: Klucel (hydroxypropylcellulose) (HPC) 114 % of control

C[n+]1c(/C=C/c2c[nH]c3ccccc23)ccc2ccccc21
inactive: dose: 5.0 mg/kg/injection, schedule: Q01DX001 (ip), vehicle: acetone 101 % of control | dose: 10.0 mg/kg/injection, schedule: Q01DX001 (ip), vehicle: acetone 102 % of control | dose: 20.0 mg/kg/injection, schedule: Q01DX001 (ip), vehicle: acetone 96 % of control | dose: 40.0 mg/kg/injection, schedule: Q01DX001 (ip), vehicle: acetone 107 % of control | dose: 80.0 mg/kg/injection, schedule: Q01DX001 (ip), vehicle: acetone 100 % of control

Cc1cccc(NC=O)c1
inactive: [1] 100 % of control | [2] 97 % of control | [3] 98 % of control | [4] 102 % of control | [5] 99 % of control

C=C1CCOC2(C(O)C(C)(O)CO)NC(=O)C1(O)NC2=O (stereo not given)
inactive: dose: 100.0 mg/kg/injection, schedule: Q04DX002 (ip), vehicle: saline 96 % of control | dose: 200.0 mg/kg/injection, schedule: Q04DX002 (ip), vehicle: saline 107 % of control | dose: 400.0 mg/kg/injection, schedule: Q04DX002 (ip), vehicle: saline 104 % of control

CC(C)C(C(=O)O)N(C)N=O (stereo not given)
inactive: [6] 94 % of control | dose: 100.0 mg/kg/injection, schedule: Q01DX001 (ip), vehicle: acetone 101 % of control | [7] 97 % of control | dose: 200.0 mg/kg/injection, schedule: Q01DX001 (ip), vehicle: acetone 103 % of control | [8] 94 % of control

N=C(N)S/C=C/CSC(=N)N
inactive: dose: 10.0 mg/kg/injection, schedule: Q01DX001 (ip), vehicle: saline 90 % of control | dose: 20.0 mg/kg/injection, schedule: Q01DX001 (ip), vehicle: saline 95 % of control | dose: 40.0 mg/kg/injection, schedule: Q01DX001 (ip), vehicle: saline 95 % of control | dose: 80.0 mg/kg/injection, schedule: Q01DX001 (ip), vehicle: saline 97 % of control

Cc1ccc2[nH]c(-c3ccccc3)c(-c3ccccc3)c2c1
inactive: [1] 95 % of control | [3] 103 % of control | [5] 95 % of control

CC(C)(CO)N=Cc1cc(Cl)cc(Cl)c1O
inactive: dose: 75.0 mg/kg/injection, schedule: Q01DX001 (ip), vehicle: saline 102 % of control | dose: 150.0 mg/kg/injection, schedule: Q01DX001 (ip), vehicle: saline 101 % of control | dose: 300.0 mg/kg/injection, schedule: Q01DX001 (ip), vehicle: saline 109 % of control

O=C(Nc1cccc(O)c1)Nc1ccc(Cl)cc1[N+](=O)[O-]
inactive: [9] 102 % of control | [10] 101 % of control

CN(C)c1ccc(C=Nc2cccc(O)c2)cc1
inactive: dose: 100.0 mg/kg/injection, schedule: Q01DX001 (ip), vehicle: carboxymethylcellulose (CMC) 102 % of control | dose: 200.0 mg/kg/injection, schedule: Q01DX001 (ip), vehicle: carboxymethylcellulose (CMC) 88 % of control | dose: 400.0 mg/kg/injection, schedule: Q01DX001 (ip), vehicle: carboxymethylcellulose (CMC) 94 % of control

O=C(/C=C/C(=O)Nc1cccc(C2=NCCN2)c1)Nc1cccc(C2=NCCN2)c1
inactive: dose: 3.75 mg/kg/injection, schedule: Q01DX Z (ip), vehicle: carboxymethylcellulose (CMC) 94 % of control | dose: 7.5 mg/kg/injection, schedule: Q01DX Z (ip), vehicle: carboxymethylcellulose (CMC) 94 % of control | dose: 15.0 mg/kg/injection, schedule: Q01DX Z (ip), vehicle: carboxymethylcellulose (CMC) 94 % of control

CCCCCCC(C)Cl (stereo not given)
inactive: [1] 105 % of control | [3] 108 % of control | [5] 106 % of control

S=P1(c2ccccc2)Nc2cc3ccccc3cc2N1
inactive: [2] 97 % of control | [4] 100 % of control | [11] 96 % of control

CN(C)[C](=O)[Pb]([c]1ccccc1)([c]1ccccc1)[c]1ccccc1
inactive: [12] 98 % of control | [13] 98 % of control

C[N+](C)(C)CCOC(=O)c1cc(CBr)cc(CBr)c1
inactive: dose: 25.0 mg/kg/injection, schedule: Q01DX009 (ip), vehicle: saline 101 % of control | dose: 25.0 mg/kg/injection, schedule: Q04DX003 (ip), vehicle: saline 98 % of control | dose: 50.0 mg/kg/injection, schedule: Q01DX009 (ip), vehicle: saline 95 % of control | [6] 100 % of control | [7] 102 % of control

O=[N+]([O-])C1(CO)COC(c2ccccc2)OC1 (stereo not given)
inactive: dose: 100.0 mg/kg/injection, schedule: Q01DX009 (ip), vehicle: water 91 % of control | [2] 111 % of control | dose: 200.0 mg/kg/injection, schedule: Q01DX009 (ip), vehicle: water 98 % of control | [4] 108 % of control | dose: 400.0 mg/kg/injection, schedule: Q01DX009 (ip), vehicle: water 92 % of control | [11] 95 % of control

CC1(C)OCC(C2OC(=S)OC2C2COC(C)(C)O2)O1 (stereo not given)
inactive: dose: 50.0 mg/kg/injection, schedule: Q04DX002 (ip), vehicle: Klucel (hydroxypropylcellulose) (HPC) 93 % of control | [14] 98 % of control | [15] 104 % of control

Cc1cc(C)c(C(=O)C=O)c(C)c1
inactive: dose: 50.0 mg/kg/injection, schedule: Q01DX009 (ip), vehicle: Klucel (hydroxypropylcellulose) (HPC) 101 % of control | [9] 100 % of control | dose: 100.0 mg/kg/injection, schedule: Q04DX003 (ip), vehicle: Klucel (hydroxypropylcellulose) (HPC) 104 % of control | [10] 95 % of control | dose: 200.0 mg/kg/injection, schedule: Q04DX003 (ip), vehicle: Klucel (hydroxypropylcellulose) (HPC) 107 % of control

CN(C)c1ccc(-c2cc(NS(=O)(=O)c3ccccc3)ccc2NS(=O)(=O)c2ccccc2)cc1
inactive: [16] 96 % of control | [17] 94 % of control | dose: 400.0 mg/kg/injection, schedule: Q01DX001 (ip), vehicle: Klucel (hydroxypropylcellulose) (HPC) 96 % of control

COc1ccc(N=Cc2cc(Br)ccc2O)cc1
inactive: [12] 100 % of control | [13] 104 % of control | dose: 400.0 mg/kg/injection, schedule: Q04DX002 (ip), vehicle: saline with Tween-80 100 % of control

Nc1ccc(Cc2cc(=O)[nH]c(=O)[nH]2)cc1[N+](=O)[O-]
inactive: dose: 25.0 mg/kg/injection, schedule: Q01DX001 (ip), vehicle: Klucel (hydroxypropylcellulose) (HPC) 98 % of control | dose: 50.0 mg/kg/injection, schedule: Q01DX001 (ip), vehicle: Klucel (hydroxypropylcellulose) (HPC) 107 % of control | [16] 88 % of control | [17] 88 % of control

CC(=O)OS(=O)(=O)c1ccc(C)cc1
inactive: dose: 100.0 mg/kg/injection, schedule: Q01DX009 (ip), vehicle: saline 98 % of control | [7] 94 % of control | dose: 200.0 mg/kg/injection, schedule: Q01DX009 (ip), vehicle: saline 90 % of control | [8] 92 % of control | dose: 400.0 mg/kg/injection, schedule: Q04DX003 (ip), vehicle: saline 89 % of control

CCCCC(CC)C1N(C)CCCN1C (stereo not given)
inactive: [2] 92 % of control | [4] 98 % of control

CN(Cc1ccc(Cl)cc1)C(=S)Nc1ccccc1
inactive: [14] 114 % of control | [15] 92 % of control | dose: 400.0 mg/kg/injection, schedule: Q04DX002 (ip), vehicle: Klucel (hydroxypropylcellulose) (HPC) 96 % of control

Source: PubChem BioAssay AID248 (DTP/NCI, 2004)
